From patent US20260102383A1, “LPAR1 Inhibitors” (AbbVie Inc., priority 2024, published 2026)
pIC50: −log10 of the molar value. Like-named read-outs stand apart in the source and are kept apart here.

Molecular target: T1, human LPAR1 (Homo sapiens, UniProt Q92633)
T1 construct: host or cells: TangoEDG2-bla U2OS cells
Assay: Arrestin assay (Arrestin Reporter EDG2-bla U2OS), inhibition of LPA-stimulated signal
Assay type: cell-based
Settings: TangoEDG2-bla U2OS cells expressing human LPAR1, 0.25 μM LPA
Procedure, shortened: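 IC50 comes from a variable-slope 4-parameter fit of % inhibition, calculated from the beta-lactamase FRET ratio (emission 460/530 nm, excitation 409 nm, 2 h development at RT). Compounds, 10 μM down to 0.00006 μM in 3-fold steps, were given 1 h before 0.25 μM final LPA for 3 h in TangoEDG2-bla U2OS cells.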

[1] = read-out: Arrestin Reporter EDG2-bla U2OS Human Merged IC50

T1 sequence (Q92633 whole entry): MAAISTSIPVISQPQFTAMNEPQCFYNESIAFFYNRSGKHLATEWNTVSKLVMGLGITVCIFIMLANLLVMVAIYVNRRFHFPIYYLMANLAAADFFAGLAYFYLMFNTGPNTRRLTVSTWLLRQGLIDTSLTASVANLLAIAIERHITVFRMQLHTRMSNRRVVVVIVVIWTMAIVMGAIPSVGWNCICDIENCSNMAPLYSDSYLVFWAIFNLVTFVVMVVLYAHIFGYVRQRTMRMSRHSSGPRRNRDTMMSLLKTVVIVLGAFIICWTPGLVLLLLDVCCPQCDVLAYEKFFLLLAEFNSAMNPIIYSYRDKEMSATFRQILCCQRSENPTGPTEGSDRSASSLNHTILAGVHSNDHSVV

pIC50 [1] | pIC50 (read-out: Arrestin Reporter EDG2-bla U2OS Human IC50) | Structure (SMILES)
7.26 |  | CC(C)c1ccnn1C1(C(=O)Nc2ccc(Cl)cc2OC(F)F)CCN(Cc2cccc(C(=O)O)n2)CC1 [Compound 36, 6-[[4-[[4-chloro-2-(difluoromethoxy)phenyl]carbamoyl]-4-(5-isopropylpyrazol-1-yl)-1-piperidyl]methyl]pyridine-2-carboxylic acid]
6.86 |  | CC(C)c1ccnn1C1(C(=O)Nc2ccc(Cl)cc2OC(F)F)CCN(C[C@@H](C(=O)O)N2CCOC(C)(C)C2)CC1 [Compound 165, (2S)-3-[4-[[4-chloro-2-(difluoromethoxy)phenyl]carbamoyl]-4-(5-isopropylpyrazol-1-yl)-1-piperidyl]-2-(2,2-dimethylmorpholin-4-yl)propanoic acid]
6.90 |  | CC(C)c1ccnn1C1(C(=O)Nc2ccc(Cl)cc2OC(F)F)CCN(C[C@@H](CN2CCOCC2)C(=O)O)CC1 [Compound 238, (2S)-2-[[4-[[4-chloro-2-(difluoromethoxy)phenyl]carbamoyl]-4-(5-isopropylpyrazol-1-yl)-1-piperidyl]methyl]-3-morpholino-propanoic acic]
7.12 |  | COC1(C(=O)N2CCC(CN3CCC(C(=O)Nc4ccc(Cl)cc4OC(F)F)(n4nccc4C(C)C)CC3)(C(=O)O)CC2)CC1 [Compound 58, 4-[[4-[[4-chloro-2-(difluoromethoxy)phenyl]carbamoyl]-4-(5-isopropylpyrazol-1-yl)-1-piperidyl]methyl]-1-(1-methoxycyclopropanecarbonyl) piperidine-4-carboxylic acid]
7.51 |  | CC(C)c1ccnn1C1(C(=O)Nc2ccc(Cl)cc2OC(F)F)CCN(C[C@]2(C(=O)O)CCOC(C)(C)C2)CC1 [Compound 173, (4S)-4-[[4-[[4-chloro-2-(difluoromethoxy)phenyl]carbamoyl]-4-(5-isopropylpyrazol-1-yl)-1-piperidyl]methyl]-2,2-dimethyl-tetrahydropyran-4-carboxylic acid]
6.92 |  | CCC(=O)N1CCC(CN2CCC(C(=O)Nc3ccc(Cl)cc3OC(F)F)(n3ncc(OC)c3C(C)C)CC2)(C(=O)O)CC1 [Compound 98, 4-[[4-[[4-chloro-2-(difluoromethoxy)phenyl]carbamoyl]-4-(5-isopropyl-4-methoxy-pyrazol-1-yl)-1-piperidyl]methyl]-1-propanoyl-piperidine-4-carboxylic acid]
7.64 |  | CC1CCc2cnn(C3(C(=O)Nc4ccc(Cl)cc4OC(F)F)CCN(CC4(C(=O)O)CCOCC4)CC3)c21 (centres unmarked) [Compound 91, 4-[[4-[[4-chloro-2-(difluoromethoxy)phenyl]carbamoyl]-4-(6-methyl-5,6-dihydro-4H-cyclopenta[e]pyrazol-1-yl)-1-piperidyl]methy] tetrahydropyran-4-carboxylic acid]
7.68 |  | COC[C@H](CN1CCC(C(=O)Nc2ccc(Cl)cc2OC(F)F)(n2nccc2C(C)C)CC1)C(=O)O [Compound 118, (2S)-2-[[4-[[4-chloro-2-(difluoromethoxy)phenyl]carbamoyl]-4-(5-isopropylpyrazol-1-yl)-1-piperidyl]methyl]-3-methoxy-propanoic acid]
7.73 |  | CC(C)c1ccnn1C1(C(=O)Nc2ccc(Cl)cc2OC(F)F)CCN(C[C@@H](C(=O)O)C2COCCOC2)CC1 [Compound 215, (2S)-3-[4-[[4-chloro-2-(difluoromethoxy)phenyl]carbamoyl]-4-(5-isopropylpyrazol-1-yl)-1-piperidyl]-2-(1,4-dioxepan-6-yl)propanoic acid]
7.37 |  | COc1cnn(C2(C(=O)Nc3ccc(Cl)cc3OC(F)F)CCN(CC3(C(=O)O)CCOCC3)CC2)c1C(C)C [Compound 81, 4-[[4-[[4-chloro-2-(difluoromethoxy)phenyl]carbamoyl]-4-(5-isopropyl-4-methoxy-pyrazol-1-yl)-1-piperidyl]methyl]tetrahydropyran-4-carboxylic acid]
7.62 |  | CC[C@H](CN1CCC(C(=O)Nc2ccc(Cl)cc2OC(F)F)(n2nccc2C(C)C)CC1)C(=O)O [Compound 122, (2R)-2-[[4-[[4-chloro-2-(difluoromethoxy)phenyl]carbamoyl]-4-(5-isopropylpyrazol-1-yl)-1-piperidyl]methyl]butanoic acid]
7.85 |  | CCOC[C@@H](CN1CCC(C(=O)Nc2ccc(Cl)cc2OC(F)F)(n2nccc2C(C)C)CC1)C(=O)O [Compound 231, (2R)-2-[[4-[[4-chloro-2-(difluoromethoxy)phenyl]carbamoyl]-4-(5-isopropylpyrazol-1-yl)-1-piperidyl]methyl]-3-ethoxy-propanoic acid]
7.42 |  | COCCC(CN1CCC(C(=O)Nc2ccc(Cl)cc2OC(F)F)(n2ncc(F)c2C(C)C)CC1)C(=O)O (centres unmarked) [Compound 188, 2-[[4-[[4-chloro-2-(difluoromethoxy)phenyl]carbamoyl]-4-(4-fluoro-5-isopropyl-pyrazol-1-yl)-1-piperidyl]methyl]-4-methoxy-butanoic acid]
7.42 |  | COC1CC(C(CN2CCC(C(=O)Nc3ccc(Cl)cc3OC(F)F)(n3nccc3C(C)C)CC2)C(=O)O)C1 (centres unmarked) [Compound 200, 3-[4-[[4-chloro-2-(difluoromethoxy)phenyl]carbamoyl]-4-(5-isopropylpyrazol-1-yl)-1-piperidyl]-2-(3-methoxycyclobutyl) propanoic acid]
7.04 |  | CO[C@]1(C(=O)O)C[C@@H](N2CCC(C(=O)Nc3ccc(Cl)cc3OC(F)F)(n3nccc3C(C)C)CC2)C1 (single isomer, unassigned) [Compound 194, (1r,3r)-3-[4-[[4-chloro-2-(difluoromethoxy)phenyl]carbamoyl]-4-(5-isopropylpyrazol-1-yl)-1-piperidyl]-1-methoxy-cyclobutanecarboxylic acid]
7.51 |  | COc1cnn([C@@H](CN2CCC(C(=O)Nc3ccc(Cl)cc3OC(F)F)(n3nccc3C(C)C)CC2)C(=O)O)c1 [Compound 225, (2S)-3-[4-[[4-chloro-2-(difluoromethoxy)phenyl]carbamoyl]-4-(5-isopropylpyrazol-1-yl)-1-piperidyl]-2-(4-methoxypyrazol-1-yl)propanoic acid]
6.76 |  | CC(C)c1ccnn1C1(C(=O)Nc2ccc(Cl)cc2OC(F)F)CCN(Cc2c(C(=O)O)nnn2C)CC1 [Compound 179, 5-[[4-[[4-chloro-2-(difluoromethoxy)phenyl]carbamoyl]-4-(5-isopropylpyrazol-1-yl)-1-piperidyl]methyl]-1-methyl-triazole-4-carboxylic acid]
8.18 |  | CC(C)c1ccnn1C1(C(=O)Nc2ccc(Cl)cc2OC(F)F)CCN(CC2(C(=O)O)CC3(CCC3)C2)CC1 [Compound 31, 2-[[4-[[4-chloro-2-(difluoromethoxy)phenyl]carbamoyl]-4-(5-isopropylpyrazol-1-yl)-1-piperidyl]methyl]spiro[3.3] heptane-2-carboxylic acid]
7.39 |  | CC(C)c1ccnn1C1(C(=O)Nc2ccc(Cl)cc2OC(F)F)CCN([C@H]2C[C@@H](CC(=O)O)C2)CC1 [Compound 94, (1s,3s)-2-[3-[4-[[4-chloro-2-(difluoromethoxy)phenyl]carbamoyl]-4-(5-isopropylpyrazol-1-yl)-1-piperidyl]cyclobutyl] acetic acid]
7.87 |  | CC(C)c1ccnn1C1(C(=O)Nc2ccc(Cl)cc2OC(F)F)CCN(CC2(C(=O)O)CCN(C(=O)CC34CC(C3)C4)CC2)CC1 [Compound 53, 1-[2-(1-bicyclo[1.1.1]pentanyl)acetyl]-4-[[4-[[4-chloro-2-(difluoromethoxy)phenyl]carbamoyl]-4-(5-isopropylpyrazol-1-yl)-1-piperidyl]methyl]piperidine-4-carboxylic acid]
7.40 |  | CC(C)c1ccnn1C1(C(=O)Nc2ccc(Cl)cc2OC(F)F)CCN([C@H]2C[C@@](C(=O)O)(C(F)(F)F)C2)CC1 [Compound 107, (1s,3s)-3-[4-[[4-chloro-2-(difluoromethoxy)phenyl]carbamoyl]-4-(5-isopropylpyrazol-1-yl)-1-piperidyl]-1-(trifluoromethyl) cyclobutanecarboxylic acid]
6.89 |  | COC(=O)CC(=O)N1CCC(CN2CCC(C(=O)Nc3ccc(Cl)cc3OC(F)F)(n3nccc3C(C)C)CC2)(C(=O)O)CC1 [Compound 9, 4-[[4-[[4-chloro-2-(difluoromethoxy)phenyl]carbamoyl]-4-(5-isopropylpyrazol-1-yl)-1-piperidyl]methyl]-1-(3-methoxy-3-oxo-propanoyl)piperidine-4-carboxylic acid]
7.18 |  | CC(C)c1ccnn1C1(C(=O)Nc2ccc(Cl)cc2OC(F)F)CCN(CC(C(=O)O)C(C)O)CC1 (centres unmarked) [Compound 203, 2-[[4-[[4-chloro-2-(difluoromethoxy)phenyl]carbamoyl]-4-(5-isopropylpyrazol-1-yl)-1-piperidyl]methyl]-3-hydroxy-butanoic acid]
 | 7.58 | COC[C@@H](CN1CCC(C(=O)Nc2ccc(Cl)cc2OC(F)F)(n2ncc(F)c2C(C)C)CC1)C(=O)O [Compound 169, (2R)-2-[[4-[[4-chloro-2-(difluoromethoxy)phenyl]carbamoyl]-4-(4-fluoro-5-isopropyl-pyrazol-1-yl)-1-piperidyl]methyl]-3-methoxy-propanoic acid]
7.03 |  | COC[C@H](CN1CCC(C(=O)Nc2ccc(Cl)cc2OC(F)F)(n2ncc3c2C(C)(C)OC3)CC1)C(=O)O [Compound 208, (2S)-2-[[4-[[4-chloro-2-(difluoromethoxy)phenyl]carbamoyl]-4-(6,6-dimethyl-4H-furo[3,4-c]pyrazol-1-yl)-1-piperidyl]methyl]-3-methoxy-propanoic acid]
7.80 |  | CC(C)c1ccnn1C1(C(=O)Nc2ccc(Cl)cc2OC(F)F)CCN(CC2(C(=O)O)CCN(C(=O)C34CC(C)(C3)C4)CC2)CC1 [Compound 79, 4-[[4-[[4-chloro-2-(difluoromethoxy)phenyl]carbamoyl]-4-(5-isopropylpyrazol-1-yl)-1-piperidyl]methyl]-1-(3-metbylbicyclo[1.1.1]pentane-1-carbonyl)piperidine-4-carboxylic acid]
